Test results published in US8912207B2, “2-aldoximino-5-fluoropyrimidine derivatives” (Dow AgroSciences, LLP., priority 2009, dated 2014).
Read-outs that look alike come from different tables or passages of the source.

Legend:
[1] = test system: Mycosphaerella graminicola; anamorph: Septoria tritici; Bayer code SEPTTR; experiment: Fungicidal activity: leaf blotch of wheat, one-day protectant (1DP) and three-day curative (3DC) tests on wheat plants; format: in vivo, Septoria tritici on wheat plants (variety Yuma); conditions: Zymoseptoria tritici, rating of % disease control vs untreated inoculated plants
Method: Evaluation of Fungicidal Activity: Leaf Blotch of Wheat (Mycosphaerella graminicola; anamorph: Septoria tritici; Bayer code […]) Wheat plants (variety Yuma) were grown from seed in a greenhouse in 50% mineral soil/50% soil-less Metro mix until the first leaf was fully emerged, with 7-10 seedlings per pot. These plants were inoculated with an aqueous spore suspension of Septoria tritici either prior to or after fungicide treatments. After inoculation the plants were kept in 100% relative humidity (one day in a dark dew chamber followed by two to three days in a lighted dew chamber) to permit spores to germinate and infect the leaf. The plants were then transferred to a greenhouse for disease to develop. The following table presents the activity of typical compounds of the present disclosure when evaluated in these experiments. The effectiveness of the test compounds in controlling disease was determined by assessing the severity of disease on treated plants, then converting the severity to percent control based on the level of disease on untreated, inoculated plants. In each case of Table III the rating scale is as follows: […]

[2] = 24 h, one-day protectant, read-out: SEPTTR 25 ppm 1DP
[3] = 24 h, one-day protectant, read-out: SEPTTR 100 ppm 1DP
[4] = 72 h, three-day curative, read-out: SEPTTR 25 ppm 3DC
[5] = 72 h, three-day curative, read-out: SEPTTR 100 ppm 3DC

| melting point | SMILES | pest or weed control at 25 ppm [1, 2] [%] | pest or weed control at 100 ppm [1, 3] [%] | pest or weed control at 25 ppm [1, 4] [%] | pest or weed control at 100 ppm [1, 5] [%] |
| --- | --- | --- | --- | --- | --- |
| 106 to 107 °C | COc1ccc(C=NOc2ncc(F)c(N(C)C)n2)cc1 [Compound 53] | 0 to 25 | 0 to 25 | 0 to 25 | 0 to 25 |
| 151 to 153 °C | Nc1nc(ON=Cc2ccccc2)ncc1F [Compound 6] | 76 to 100 | 76 to 100 | 76 to 100 | 76 to 100 |
| 75 to 76 °C | CN(C)c1nc(ON=Cc2ccccc2)ncc1F [Compound 51] | 0 to 25 | 0 to 25 | 0 to 25 | 51 to 75 |
| – | COc1ccc(CNc2nc(ON=Cc3ccccc3)ncc2F)cc1 [Compound 31] | 26 to 50 | 76 to 100 | 51 to 75 | 76 to 100 |
| – | CN(Cc1ccccc1)c1nc(ON=Cc2ccccc2)ncc1F [Compound 36] | 0 to 25 | 0 to 25 | 26 to 50 | 51 to 75 |
| 111 to 113 °C | Fc1cnc(ON=Cc2ccccc2)nc1NCc1ccccc1 [Compound 21] | 0 to 25 | 76 to 100 | 51 to 75 | 76 to 100 |
| 110 to 112 °C | COc1ccc(CN(C)c2nc(ON=CC(C)C)ncc2F)cc1 [Compound 50] | 0 to 25 | 0 to 25 | 26 to 50 | 26 to 50 |
| 141 to 142 °C | COc1ccc(C=NOc2ncc(F)c(NCc3ccc(Cl)cc3)n2)cc1 [Compound 28] | 0 to 25 | 26 to 50 | 0 to 25 | 0 to 25 |
| 200 to 220 °C (dec.) | Nc1nc(ON=Cc2ccc(Cl)cc2)ncc1F [Compound 8] | 76 to 100 | 76 to 100 | 76 to 100 | 76 to 100 |
| – | COc1ccc(C=NOc2ncc(F)c(NCc3ccc(OC)cc3)n2)cc1 [Compound 33] | 51 to 75 | 76 to 100 | 0 to 25 | 51 to 75 |
| – | CC=NOc1ncc(F)c(N(C)Cc2ccc(OC)cc2)n1 [Compound 49] | 0 to 25 | 0 to 25 | 0 to 25 | 26 to 50 |
| 116 to 117 °C | CC=NOc1ncc(F)c(NCc2ccc(Cl)cc2)n1 [Compound 29] | 0 to 25 | 26 to 50 | 0 to 25 | 51 to 75 |
| 144 to 146 °C | CN(C)c1nc(ON=Cc2ccc(Cl)cc2)ncc1F [Compound 52] | 0 to 25 | 0 to 25 | 0 to 25 | 26 to 50 |
| 99 to 100 °C | CC=NOc1ncc(F)c(NCc2ccccc2F)n1 [Compound 20] | 26 to 50 | 51 to 75 | 51 to 75 | 76 to 100 |
| 127 to 128 °C | Fc1cnc(ON=Cc2ccccc2)nc1NCc1ccc(Cl)cc1 [Compound 26] | 0 to 25 | 0 to 25 | 26 to 50 | 26 to 50 |
| 90 to 92 °C | CC(C)C=NOc1ncc(F)c(N(C)C)n1 [Compound 55] | 0 to 25 | 0 to 25 | 0 to 25 | 0 to 25 |
| – | COc1ccc(CNc2nc(ON=CC(C)C)ncc2F)cc1 [Compound 35] | 0 to 25 | 26 to 50 | 0 to 25 | 76 to 100 |
| 100 to 103 °C | COc1ccc(C=NOc2ncc(F)c(N(C)Cc3ccccc3)n2)cc1 [Compound 38] | 0 to 25 | 0 to 25 | 26 to 50 | 51 to 75 |

| melting point | SMILES | pest or weed control at 25 ppm [1, 2] [%] | pest or weed control at 100 ppm [1, 3] [%] | pest or weed control at 25 ppm [1, 4] [%] | pest or weed control at 100 ppm [1, 5] [%] |
| --- | --- | --- | --- | --- | --- |
| – | Fc1ccccc1CNc1nc(ON=Cc2ccccc2)ncc1F [Compound 17] | 76 to 100 | 76 to 100 | 0 to 25 | 0 to 25 |
| 122 to 124 °C | CC=NOc1ncc(F)c(N(C)C)n1 [Compound 54] | 0 to 25 | 0 to 25 | 0 to 25 | 0 to 25 |
| – | COc1ccc(CNc2nc(ON=Cc3ccc(Cl)cc3)ncc2F)cc1 [Compound 32] | 0 to 25 | 0 to 25 | 26 to 50 | 76 to 100 |
| 220 to 230 °C (dec.) | COc1ccccc1C=NOc1ncc(F)c(/N=C/N(C)C)n1 [Compound 14] | 76 to 100 | 76 to 100 | 76 to 100 | 76 to 100 |
| 240 to 244 °C (dec.) | CN(C)/C=N/c1nc(ON=Cc2ccccc2)ncc1F [Compound 1, N′-{5-fluoro-2-[1-phenylmethylideneamino-oxy]pyrimidin-4-yl}-N,N-dimethylformamidine] | 76 to 100 | 76 to 100 | 76 to 100 | 76 to 100 |
| 224 to 228 °C (dec.) | CC(C)C=NOc1ncc(F)c(N(C)Cc2ccc(Cl)cc2)n1 [Compound 45] | 0 to 25 | 0 to 25 | 26 to 50 | 0 to 25 |
| 186 to 210 °C (dec.) | CN(C)/C=N/c1nc(ON=Cc2ccccc2Cl)ncc1F [Compound 3] | 76 to 100 | 76 to 100 | 76 to 100 | 76 to 100 |
| 78 to 81 °C | CN(Cc1ccccc1)c1nc(ON=Cc2ccc(Cl)cc2)ncc1F [Compound 37] | 0 to 25 | 51 to 75 | 26 to 50 | 76 to 100 |
| – | COc1ccc(CN(C)c2nc(ON=Cc3ccccc3)ncc2F)cc1 [Compound 46] | 0 to 25 | 0 to 25 | 26 to 50 | 76 to 100 |
| 250 to 270 °C (dec.) | COc1ccc(C=NOc2ncc(F)c(N)n2)cc1 [Compound 12] | 76 to 100 | 76 to 100 | 76 to 100 | 76 to 100 |
| – | COc1ccc(C=NOc2ncc(F)c(N(C)Cc3ccc(Cl)cc3)n2)cc1 [Compound 43] | 0 to 25 | 0 to 25 | 26 to 50 | 26 to 50 |
| 176 to 179 °C | CC(C)C=NOc1ncc(F)c(N(C)Cc2ccccc2)n1 [Compound 40] | 0 to 25 | 0 to 25 | 0 to 25 | 51 to 75 |
| – | COc1ccc(C=NOc2ncc(F)c(NCc3ccccc3F)n2)cc1 [Compound 19] | 51 to 75 | 76 to 100 | 0 to 25 | 0 to 25 |
| – | O=CNc1nc(ON=Cc2ccccc2)ncc1F [Compound 4, N-{5-fluoro-2-[1-phenylmethylideneamino-oxy]pyrimidin-4-yl}formamide] | 76 to 100 | 76 to 100 | 76 to 100 | 76 to 100 |
| 214 to 220 °C (dec.) | CC=NOc1ncc(F)c(N(C)Cc2ccc(Cl)cc2)n1 [Compound 44] | – | – | – | – |
| – | CC=NOc1ncc(F)c(NCc2ccccc2)n1 [Compound 24] | 0 to 25 | 0 to 25 | 0 to 25 | 26 to 50 |
| – | CC(C)C=NOc1ncc(F)c(NCc2ccccc2)n1 [Compound 25] | 0 to 25 | 26 to 50 | 26 to 50 | 76 to 100 |
| – | CC(C)C=NOc1ncc(F)c(NCc2ccccc2F)n1 [Compound 16, 2-methylpropionaldehyde O-[5-fluoro-4-(2-fluorobenzylamino)pyrimidin-2-yl]oxime] | 0 to 25 | 0 to 25 | 51 to 75 | 76 to 100 |
